Results from patent publication US20260248842A1, “METHOD FOR TRANSIENT ACIDIFICATION OF WOUNDS” (SePRO Corporation, priority 2023, published 2026).

Experiment: Early studies: permeation and transient acidification of pig skin
Conditions: same amounts of ammonia equivalents and sulfuric acid in comparison solutions

With `N.N.O=S(=O)(O)O` [ammonium sulfate] the “permeation of pig skin and transient acidification” value was “neither of the acidified ammonium salts solutions permeated pig skin”.
